Measured values from the supplement of paper PMC11061612.

Assays:
[1] = tested on: NCI-H720 (Other Solid Carcinomas); test: Bliss excess, mean over the matrix (fraction); higher = more synergy
Summary of the method: (§1)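 Bliss excess equals the observed combination effect minus the expected value EA + EB − EA·EB, where EA and EB are the effects of each agent alone. Combination Emax is the second-highest inhibition within the matrix. Inhibition was scaled from CellTiter-Glo 2.0 luminescence, with 0 set by vehicle wells and 1 by blank wells, after 72 hours of two-drug dosing of cells plated in 1536-well plates.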

[2] = tested on: GAMG (Glioblastoma); test: combination Emax (second highest fraction inhibited in the dose matrix, 72 h); higher = more inhibition; extreme values may be limits of the assay
Summary of the method: as §1

[3] = tested on: YAPC (Pancreatic Carcinoma); test: as above
Summary of the method: as §1

[4] = tested on: ALL-PO (B-Lymphoblastic Leukemia); test: as above
Summary of the method: as §1

[5] = tested on: NCI-H720 (Other Solid Carcinomas); test: as above
Summary of the method: as §1

[6] = tested on: BFTC-909 (Kidney Carcinoma); test: as above
Summary of the method: as §1

[7] = tested on: KS-1 (Glioblastoma); test: as above
Summary of the method: as §1

[8] = tested on: TGBC1TKB (Biliary Tract Carcinoma); test: as above
Summary of the method: as §1

[9] = tested on: LCLC-97TM1 (Non-Small Cell Lung Carcinoma); test: as above
Summary of the method: as §1

[10] = tested on: NCI-H209 (Small Cell Lung Carcinoma); test: as above
Summary of the method: as §1

[11] = tested on: Hs-746T (Gastric Carcinoma); test: as above
Summary of the method: as §1

[12] = tested on: L-428 (Hodgkin's Lymphoma); test: as above
Summary of the method: as §1

SMILES | Bliss excess [1] | combination Emax [2] | combination Emax [3] | combination Emax [4] | combination Emax [5] | combination Emax [6] | combination Emax [7] | combination Emax [8] | combination Emax [9] | combination Emax [10] | combination Emax [11] | combination Emax [12]
CN(C)CCCOc1ccc(-c2ccc3ncc4c(c3c2)n(C2CCOCC2)c(=O)n4C)cn1 [AZD0156] + C=CCn1c(=O)c2cnc(Nc3ccc(N4CCN(C)CC4)cc3)nc2n1-c1cccc(C(C)(C)O)n1 [AZD1775] (first compound max 1 µM, partner max 1 µM) | 0.0013 | 0.266 | 0.251 | 0.959 | 0.722 | 0.67 | 0.39 | 0.134 | 0.828 | 0.84 | 0.491 | 0.824
CN(C)CCCOc1ccc(-c2ccc3ncc4c(c3c2)n(C2CCOCC2)c(=O)n4C)cn1 [AZD0156] + CCN(CCO)CCCOc1ccc2c(Nc3cc(CC(=O)Nc4cccc(F)c4)[nH]n3)ncnc2c1 [AZD2811] (first compound max 1 µM, 7x7, partner max 1 µM) | 0.0368 | 0.22 | 0.137 | 0.977 | 0.742 | 0.127 | 0.291 | 0.0674 | 0.371 | 0.552 | 0.155 | 0.187
CN(C)CCCOc1ccc(-c2ccc3ncc4c(c3c2)n(C2CCOCC2)c(=O)n4C)cn1 [AZD0156] + C[C@@H]1COCCN1C2=NC(=NC(=C2)C3(CC3)[S@](=N)(=O)C)C4=C5C=CNC5=NC=C4 [AZD6738] (first compound max 1 µM, 7x7, partner max 10 µM) | -0.0059 | 0.422 | 0.294 | 0.922 | 0.716 | 0.813 | 0.561 | 0.397 | 0.88 | 0.854 | 0.636 | 0.777
C=CCn1c(=O)c2cnc(Nc3ccc(N4CCN(C)CC4)cc3)nc2n1-c1cccc(C(C)(C)O)n1 [AZD1775] + C[C@@H]1COCCN1C2=NC(=NC(=C2)C3(CC3)[S@](=N)(=O)C)C4=C5C=CNC5=NC=C4 [AZD6738] (first compound max 1 µM, partner max 10 µM) | 0.0344 | 0.596 | 0.492 | 0.977 | 0.838 | 0.906 | 0.66 | 0.502 | 0.891 | 0.944 | 0.691 | 0.891
C=CCn1c(=O)c2cnc(Nc3ccc(N4CCN(C)CC4)cc3)nc2n1-c1cccc(C(C)(C)O)n1 [AZD1775] + O=C(c1cc(Cc2n[nH]c(=O)c3ccccc23)ccc1F)N1CCN(C(=O)C2CC2)CC1 [Olaparib] (first compound max 1 µM, partner max 10 µM) | -0.035 | 0.486 | 0.432 | 0.951 | 0.671 | 0.595 | 0.481 | 0.258 | 0.774 | 0.922 | 0.591 | 0.842
CCN(CCO)CCCOc1ccc2c(Nc3cc(CC(=O)Nc4cccc(F)c4)[nH]n3)ncnc2c1 [AZD2811] + C=CCn1c(=O)c2cnc(Nc3ccc(N4CCN(C)CC4)cc3)nc2n1-c1cccc(C(C)(C)O)n1 [AZD1775] (first compound max 1 µM, partner max 1 µM) | 0.0326 | 0.417 | 0.408 | 0.981 | 0.679 | 0.683 | 0.481 | 0.234 | 0.842 | 0.879 | 0.436 | 0.824
CCN(CCO)CCCOc1ccc2c(Nc3cc(CC(=O)Nc4cccc(F)c4)[nH]n3)ncnc2c1 [AZD2811] + C[C@@H]1COCCN1C2=NC(=NC(=C2)C3(CC3)[S@](=N)(=O)C)C4=C5C=CNC5=NC=C4 [AZD6738] (first compound max 1 µM, 7x7, partner max 10 µM) | 0.0033 | 0.399 | 0.288 | 0.979 | 0.8 | 0.777 | 0.576 | 0.383 | 0.842 | 0.913 | 0.582 | 0.78
CCN(CCO)CCCOc1ccc2c(Nc3cc(CC(=O)Nc4cccc(F)c4)[nH]n3)ncnc2c1 [AZD2811] + O=C(c1cc(Cc2n[nH]c(=O)c3ccccc23)ccc1F)N1CCN(C(=O)C2CC2)CC1 [Olaparib] (first compound max 1 µM, 7x7, partner max 10 µM) | -0.0312 | 0.399 | 0.147 | 0.975 | 0.561 | 0.221 | 0.363 | 0.0912 | 0.319 | 0.971 | 0.232 | 0.348
CCc1c2c(nc3ccc(O)cc13)-c1cc3c(c(=O)n1C2)COC(=O)[C@]3(O)CC [SN-38] + O=C(c1cc(Cc2n[nH]c(=O)c3ccccc23)ccc1F)N1CCN(C(=O)C2CC2)CC1 [Olaparib] (first compound max 0.3 µM, 7x7, partner max 10 µM) | -0.0027 | 0.762 | 0.646 | 0.981 | 0.333 | 0.931 | 0.556 | 0.493 | – | – | – | 0.94
CC1(C)CCC(CN2CCN(c3ccc(C(=O)NS(=O)(=O)c4ccc(NCC5CCOCC5)c([N+](=O)[O-])c4)c(Oc4cnc5[nH]ccc5c4)c3)CC2)=C(c2ccc(Cl)cc2)C1 [Venetoclax] + CN(C)CCCOc1ccc(-c2ccc3ncc4c(c3c2)n(C2CCOCC2)c(=O)n4C)cn1 [AZD0156] (first compound max 1 µM, 7x7, partner max 1 µM) | – | 0.273 | 0.175 | 0.516 | – | 0.144 | 0.224 | 0.244 | 0.105 | 0.528 | 0.226 | 0.176
CC1(C)CCC(CN2CCN(c3ccc(C(=O)NS(=O)(=O)c4ccc(NCC5CCOCC5)c([N+](=O)[O-])c4)c(Oc4cnc5[nH]ccc5c4)c3)CC2)=C(c2ccc(Cl)cc2)C1 [Venetoclax] + COc1cc(Nc2ncc3c(n2)-c2ccc(Cl)cc2C(c2c(F)cccc2OC)=NC3)ccc1C(=O)O [Alisertib] (first compound max 1 µM, 7x7, partner max 10 µM) | – | 0.662 | 0.142 | 1 | – | 0.502 | 0.635 | 0.403 | 0.497 | 0.891 | 0.65 | 0.363
CC1(C)CCC(CN2CCN(c3ccc(C(=O)NS(=O)(=O)c4ccc(NCC5CCOCC5)c([N+](=O)[O-])c4)c(Oc4cnc5[nH]ccc5c4)c3)CC2)=C(c2ccc(Cl)cc2)C1 [Venetoclax] + C[C@@H]1COCCN1C2=NC(=NC(=C2)C3(CC3)[S@](=N)(=O)C)C4=C5C=CNC5=NC=C4 [AZD6738] (first compound max 1 µM, 7x7, partner max 10 µM) | – | 0.708 | 0.317 | 1 | – | 0.853 | 0.57 | 0.46 | 0.85 | 0.981 | 0.508 | 0.779
CC1(C)CCC(CN2CCN(c3ccc(C(=O)NS(=O)(=O)c4ccc(NCC5CCOCC5)c([N+](=O)[O-])c4)c(Oc4cnc5[nH]ccc5c4)c3)CC2)=C(c2ccc(Cl)cc2)C1 [Venetoclax] + C[C@@H](Nc1cc(F)cc(F)c1)c1cc(C(=O)N(C)C)cc2c(=O)cc(N3CCOCC3)oc12 [AZD8186] (first compound max 1 µM, 7x7, partner max 3 µM) | – | 0.453 | 0.0625 | 0.703 | – | 0.203 | 0.341 | 0.526 | 0.129 | 0.515 | 0.269 | 0.196
CC1(C)CCC(CN2CCN(c3ccc(C(=O)NS(=O)(=O)c4ccc(NCC5CCOCC5)c([N+](=O)[O-])c4)c(Oc4cnc5[nH]ccc5c4)c3)CC2)=C(c2ccc(Cl)cc2)C1 [Venetoclax] + Cc1cc2ncnn2cc1Nc1ncc2c(n1)n(C1CCOCC1)c(=O)n2C [AZD7648] (first compound max 1 µM, 7x7, partner max 10 µM) | – | 0.377 | 0.2 | 0.613 | – | 0.294 | 0.294 | 0.297 | 0.2 | 0.642 | 0.226 | 0.215
CC1(C)CCC(CN2CCN(c3ccc(C(=O)NS(=O)(=O)c4ccc(NCC5CCOCC5)c([N+](=O)[O-])c4)c(Oc4cnc5[nH]ccc5c4)c3)CC2)=C(c2ccc(Cl)cc2)C1 [Venetoclax] + Cn1cnc2c(F)c(Nc3ccc(Br)cc3Cl)c(C(=O)NOCCO)cc21 [Selumetinib] (first compound max 1 µM, 7x7, partner max 3 µM) | – | 0.157 | 0.145 | 0.538 | – | 0.23 | 0.261 | 0.167 | 0.458 | 0.436 | 0.242 | 0.137
